Source: patent publication US20090220432A1, “Imaging agents and methods of using same for detecting multidrug resistance in cancer” (The Johns Hopkins University, priority 2005, published 2009)
“Also recorded” adds a separate entry of the source.

How the values were obtained:
MCF-7^adr cells [1] = assay: Flow cytometry (FACS) of contrast agent uptake; type: cell-based, Human
Description: FIG. 4 is a graph showing fluorescence detection of Tat-GdDOTA-TAMRA taken up by MCF-7^wt and MCF-7^adr cells after exposure to 0.5 mg/ml of same for 20 min. Dotted lines represent controls (line “a”: MCF-7^wt; line “b”: MCF-7^adr). Solid lines represent the cells treated with Tat-GdDOTA-TAMRA (line “c”: MCF-7^wt; line “d”: MCF-7^adr). […] A FACSCalibur (Becton Dickinson Biosciences, San Jose, Calif., U.S.A.) was used for flow cytometry. Acquisition and analysis were performed with Cell Quest software (Becton Dickinson Biosciences, San Jose, Calif., U.S.A.).
(§1) In addition to the above experiments, collected cell pellets were incubated with 250 μl of Tat-GdDOTA-TAMRA (0.5 mg/ml in EMEM) for 20 min at 37° C. in the 5% CO2 incubator. After consecutive washing with PBS, cells were fixed in 3% paraformaldehyde for 15 min. As a control, cells were incubated with EMEM alone. To inhibit multidrug resistance mechanisms, 100 μM of DMCD was added to cells for 20 min prior to exposure to Tat-GdDOTA-TAMRA. In each step, cells were washed thoroughly. TAMRA fluorescence was detected in the orange-red region using band-selective emission filters centered around 600 nm.

[2] = T1 relaxivity of the agent at 9.4T; type: physicochemical
Source text: (§2) Materials. An HIV-1 Tat basic domain peptide-GdDOTA-carboxytetramethylrhodamine conjugates (Tat-GdDOTA-TAMRA, MW=2,989; as shown in FIG. 1) was custom-synthesized by Global Peptide Services, LLC (Fort Collins, Colo., U.S.A.). The specific T1 relaxivity (R,) of the agent at 9.4T is 4.9 (sec·mM)^−1. Monoclonal anti-P-gp [P-7965], streptavidin-QR conjugates [S-2899], and rhodamine 123 [R-8004] were purchased from Sigma Chemical Company (St. Louis, Mo., U.S.A.). Heptakis-(2,6-di-O-methyl)-β-cyclodextrin (DMCD) and cyclosporin A were purchased from Sigma-Aldrich Co. (St. Louis, Mo., U.S.A.). 4′,6-diamidino-2-phenylindole (DAPI) was obtained from Invitrogen Corp. (Carlsbad, Calif., U.S.A.). All other chemicals were obtained as reagent-grade products. Cell lines. Human breast adenocarcinoma (MCF-7^wt) and its multi-drug-resistant variant (MCF-7^adr) were maintained in Eagle's minimum essential medium (EMEM) with 1% penicillin, streptomycin, and 10% fetal bovine serum at 37° C. with 5% CO2. For MCF-7^adr cells, the growth medium was supplemented with 1.5 μM of adriamycin every medium change. Flow cytometry and fluorescent microscopy. Initially, to check P-gp expression and P-gp function of both cell lines, flow cytometry was implemented using a double staining technique as follows. […]

MCF-7^adr cells [3] = assay: Fluorescent microscopy of contrast agent uptake; type: cell-based, Human
Description: (§3) Cells were treated with 100 μg/ml DMCD prior to the exposure to Tat-GdDOTA-TAMRA. An Eclipse E400 microscope with a C-SHG1 super high pressure mercury lamp and a Coolpix 5000 digital camera (Nikon Inc., Tokyo, Japan) was used for fluorescent microscopy. Exposure time= 1/15 s, magnification=×40.
as §1

MCF-7^wt cells [4] = assay: Fluorescent microscopy of contrast agent uptake; type: cell-based, Human; conditions: 0.5 mg/ml for 20 min
Description: as §3, §1

MCF-7^adr cells [5] = assay: In vitro MRI T1 measurement of labeled cells; type: cell-based, Human
Description: as §1
(§4) Confocal microscopy. MCF-7^wt and MCF-7^adr cell lines were separately seeded in each 4-chamber glass slide (Nalge Nunc International Corp., Naperville, Ill., U.S.A.). Cells were incubated with 250 μl of Tat-GdDOTA-TAMRA (10 μg/ml) for 30 min in the 5% CO2 incubator. Cell nuclei were stained with DAPI ([…]) for 5 min. Cells were fixed with 3% paraformaldehyde for 15 min, and mounted under a coverslip following removal of plastic chambers. Confocal studies were performed with an inverted Zeiss LSM 410 confocal microscope (Carl Zeiss AG, Jena, Germany) using a 40× water immersion lens. In vitro MRI study. For the in vitro MRI study, the cell labeling procedure followed the protocol used for flow cytometry and microscopy studies, except that 20 µM of cyclosporin A was used, rather than DMCD as a multidrug resistance inhibitor. Cell suspensions were transferred into micro-centrifuge PCR tubes. MRI was carried out on a Bruker horizontal bore 9.4T spectrometer (Bruker Biospin GmbH, Rheinstetten, Germany) equipped with shielded gradients. The Paravision 3.0.2 program (Bruker Biospin GmbH) was used as acquisition software. […] Quantitative T1, maps of the samples were reconstructed using custom-written software in the IDL programming environment Research Systems Inc., Boulder, Colo., U.S.A.) that runs on Linux workstations. Final analysis was performed with the Image) program. (NIH, Bethesda, Md., U.S.A.).

MCF-7^wt cells [6] = assay: In vitro MRI T1 measurement of labeled cells; type: cell-based, Human
Description: as §1, §4

MCF-7^adr cells [7] = assay: Confocal microscopy of contrast agent with DAPI nuclei staining; type: cell-based, Human; conditions: MDR cells, 10 μg/ml for 30 min
Description: (§5) Confocal microscopy. MCF-7^wt and MCF-7^adr cell lines were separately seeded in each 4-chamber glass slide (Nalge Nunc International Corp., Naperville, Ill., U.S.A.). Cells were incubated with 250 μl of Tat-GdDOTA-TAMRA (10 μg/ml) for 30 min in the 5% CO2 incubator. Cell nuclei were stained with DAPI ([…]) for 5 min. Cells were fixed with 3% paraformaldehyde for 15 min, and mounted under a coverslip following removal of plastic chambers. Confocal studies were performed with an inverted Zeiss LSM 410 confocal microscope (Carl Zeiss AG, Jena, Germany) using a 40× water immersion lens. In vitro MRI study. […] A saturation recovery snapshot-FLASH pulse sequence with an excitation pulse flip angle of 10 degrees, an echo time of 1.245 ms, and ten T1, saturation recovery delays (50, 100, 250, 500, 1,000, 1,500, 2,000, 3,000, 5,000, 12,000 ms) were used (Bhujwalla, Z. M., Artemov, D., Natarajan, K., Ackerstaff, E. & Solaiyappan, M., “Vasuclar Differences Detected by MRI for Metastatic Versus Nonmetastatic Breast and Prostate Cancer Xenografts”, Neoplasia 3, 143-153 (2002)). Quantitative T1, maps of the samples were reconstructed using custom-written software in the IDL programming environment Research Systems Inc., Boulder, Colo., U.S.A.) that runs on Linux workstations. […]

MCF-7^wt cells [8] = assay: as above; type: cell-based, Human; conditions: wild type cells, 10 μg/ml for 30 min
Description: as §5

[9] = MRI relaxation times of water sample doped with GdDTPA; type: physicochemical; conditions: water sample doped with GdDTPA (0.05 M)
wild type KB tumor = conditions: cited from earlier work
MCF-7^adr cells [10] = assay: Flow cytometry of rhodamine 123 uptake (double staining with anti-P-gp); type: cell-based, Human; conditions: 30 min incubation
Source text: as §2

MCF-7^wt cells [11] = assay: as above; type: cell-based, Human; conditions: 30 min incubation
Source text: as §2

[12] = MCF-7^adr, 0.5 mg/ml for 20 min

HIV-1 Tat basic domain peptide-GdDOTA-carboxytetramethylrhodamine conjugates [Tat-GdDOTA-TAMRA]
agent delivered into cells by FACS, in comparison to MCF-7^wt (MCF-7^adr cells [1]; [12]): significantly lower | specific T1 relaxivity [2]: 4.9 s/mM | fluorescence detected by microscopy (MCF-7^adr cells [3]; [12]): Lower or no fluorescence | uptake by fluorescence microscopy (MCF-7^wt cells [4]): Efficient uptake | T1 (MCF-7^adr cells [5]; MCF-7^adr cells, 0.5 mg/ml agent for 20 min, 9.4T MRI, averaged T1): 2.05 ± 0.06 s | T1 reduction (ΔT1) (MCF-7^adr cells [5]; MCF-7^adr, treated vs control (Table 1 columns 6 and 7)): 0.3 ± 0.11 s | effect on T1 relaxation time (MCF-7^adr cells [5]; MDR cells treated with the conjugates alone): almost no decrease | T1 (MCF-7^wt cells [6]; MCF-7^wt cells, 0.5 mg/ml agent for 20 min, 9.4T MRI, averaged T1): 1.79 ± 0.02 s | T1 reduction (ΔT1) (MCF-7^wt cells [6]; MCF-7^wt, treated vs control (Table 1 columns 2 and 3)): 0.54 ± 0.11 s | effect on T1 relaxation time (MCF-7^wt cells [6]; wild type cells, 0.5 mg/ml): significantly decreased; also recorded: significantly reduced | intracellular localization (confocal) (MCF-7^adr cells [7]): significantly less compound and less co-localization with nuclei | intracellular localization (confocal) (MCF-7^wt cells [8]): co-localized with nuclei

O=C([O-])CN(CCN(CC(=O)[O-])CC(=O)O)CCN(CC(=O)[O-])CC(=O)O.[Gd+3] [GdDTPA]
T1 relaxation time [9]: ~25 ms | T2 relaxation time [9]: ~25 ms

[C-]#[N+]CC(C)(C)OC.[C-]#[N+]CC(C)(C)OC.[C-]#[N+]CC(C)(C)OC.[C-]#[N+]CC(C)(C)OC.[C-]#[N+]CC(C)(C)OC.[C-]#[N+]CC(C)(C)OC.[Tc] [[^99mTc]SESTAMIBI]
retention in tumor (wild type KB tumor): retained

rhodamine 123
accumulation of rhodamine 123 (MCF-7^adr cells [10]): reduced accumulation | accumulation of rhodamine 123 (MCF-7^wt cells [11]): efficient accumulation

COC[C@H]1O[C@@H]2O[C@H]3[C@H](O)[C@@H](OC)[C@@H](O[C@H]4[C@H](O)[C@@H](OC)[C@@H](O[C@H]5[C@H](O)[C@@H](OC)[C@@H](O[C@H]6[C@H](O)[C@@H](OC)[C@@H](O[C@H]7[C@H](O)[C@@H](OC)[C@@H](O[C@H]8[C@H](O)[C@@H](OC)[C@@H](O[C@H]1[C@H](O)[C@H]2OC)O[C@@H]8COC)O[C@@H]7COC)O[C@@H]6COC)O[C@@H]5COC)O[C@@H]4COC)O[C@@H]3COC [DMCD, Heptakis-(2,6-di-O-methyl)-β-cyclodextrin, reference compound]
uptake of Tat-GdDOTA-TAMRA after MDR inhibitor pre-treatment (FACS) (MCF-7^adr cells [1]; MCF-7^adr pre-treated with inhibitor): recovered almost to the level typical for wild type cells | retention of Tat-GdDOTA-TAMRA conjugates after MDR inhibitor pre-treatment (microscopy) (MCF-7^adr cells [3]; MCF-7^adr pre-treated with inhibitor for 20 min): high retention
